Measurements as given in ChEMBL document CHEMBL4190205 (2017).

System: Human immunodeficiency virus
Experiment: Antiviral activity against HIV infected in human 1A2 cells assessed as protection against virus-induced cytopathic effect by measuring cell viability at 5 ug/ml after 96 hrs by MTT assay relative to control
Format: functional

Structure (SMILES)	Activity
O=C(NCCc1ccccc1)NCCc1ccccc1C(=O)NCCc1ccccc1C(=O)NCCc1ccccc1C(=O)NCCc1ccccc1	17 - 48%
COC(=O)NCCc1ccccc1C(=O)NCCc1ccccc1	17 - 48%
O=C(NCCc1ccccc1C(=O)NCCc1ccccc1)NCCc1ccccc1C(=O)NCCc1ccccc1	17 - 48%
COC(=O)NCCc1ccccc1C(=O)NCCc1ccccc1C(=O)NCCc1ccccc1C(=O)NCCc1ccccc1	17 - 48%
O=C(NCCc1ccccc1C(=O)NCCc1ccccc1)NCCc1ccccc1C(=O)NCCc1ccccc1C(=O)NCCc1ccccc1	17 - 48%
O=C(NCCc1ccccc1)NCCc1ccccc1C(=O)NCCc1ccccc1C(=O)NCCc1ccccc1	17 - 48%
COC(=O)NCCc1ccccc1C(=O)NCCc1ccccc1C(=O)NCCc1ccccc1	17 - 48%
COC(=O)NCCc1ccccc1C(=O)NCCc1ccccc1C(=O)NCCc1ccccc1C(=O)NCCc1ccccc1C(=O)NCCc1ccccc1	17 - 48%
